# Read-outs that look alike come from different tables or passages of the source.
# Assays:
# [1] = system: Salmonella typhimulium TA1535/pSK1002; format: cell-based
# Procedure: An antimutagenic activity was determined according to a method for detecting an environmental mutagen by the umu test, which can determine mutagenicity with reference to the β-galactosidase activity (Mutation Research, 147: 219 (1985)). Briefly, 25 μl of mutagen [mitomycin C (a DNA crosslinker) at 10 μg/ml or 4-nitroquinoline-1-oxide (NQO, a DNA methylating agent) at 7 μg/ml] was added to 50 μl of DGE solution at a varying concentration (1.0, 5.0, 10 or 15 mM). A culture of Salmonella typhimulium TA1535/pSK1002 in TGA medium at OD600 of 0.12 was added to the mixture to make the final volume to 1.5 ml. The mixture was then incubated at 37° C. for 2 hours with shaking. 200 μl of the culture was used to measure the β-galactosidase activity according to the method of Miller [Experiments in molecular genetics, pp. 352 (1972)].
# [2] = system: Mouse melanoma cell B16BL6; test: Melanogenesis inhibition test; format: cell-based; conditions: B16BL6, absorbance at 400 nm
# Procedure: Mouse melanoma cell B16BL6 suspended in RPMI 1640 medium containing 10% fetal bovine serum was dispensed into a 6-well plate at 5×10^4 cells/well/2 ml medium and the plate was incubated at 37° C. On the 2nd day, 100 μl of a DGE solution (2 mg/ml to 0.2 mg/ml) was added thereto. On the 7th day, the medium was exchanged and, at the same time, 100 μl of the DGE solution (2 mg/ml to 0.2 mg/ml) was added thereto. On the 8th day, the cells were harvested. After DNA, RNA and protein were digested, the absorbance at 400 nm was measured to determine an activity of inhibiting melanogenesis.
# Briefly, after removing the medium by aspiration, 0.3 ml of 0.25% trypsin dissolved in 20 mM EDTA solution was added to each well and the plate was incubated at 37° C. for 10 minutes. 2 ml of fresh medium was then added to the well and the cells were suspended. The suspension was transferred to a tube. After the medium was removed by centrifugation, the cells were suspended in 2 ml of PBS and centrifuged again. After the supernatant was removed, 30 μl of 50 mM sodium acetate buffer (pH 5.0) containing 5 mM manganese chloride and 1 μl of 70,000 U/ml DNase I (Takara Shuzo) were added to the cells. The mixture was mixed thoroughly and then incubated at 37° C. for 2 hours to digest DNA. 1 μl of 10 mg/ml ribonuclease A (Sigma) was then added to the mixture and the resultant mixture was incubated at 50° C. for 1 hour to digest RNA. Finally, 100 mM Tris-hydrochloride buffer (pH 7.8) containing 100 μg/ml proteinase K (Sigma), 0.1% Triton X and 10 mM EDTA was added thereto to make the total volume to 200 μl for 2×10^6 cells. After the mixture was incubated at 37° C. for 16 hours, the absorbance at 400 nm was measured.
# [3] = system: α-glucosidase from rat small intestine mucous membrane; test: α-Glucosidase inhibition test (crude enzyme from rat small intestine); format: biochemical; conditions: for relative activity: control without DGE = 100%
# Procedure: (2) A crude enzyme preparation of α-glucosidase from rat small intestine mucous membrane [prepared according to the method as described in Arne Dahlqvist, Anal. Biochem., 7:18-25 (1964)] was used to measure the activity of inhibiting α-glucosidase of DGE as follows.
# For the enzymatic reaction, 80 μl of a solution of sucrose, maltose, treharose or soluble starch as a substrate in 10 mM phosphate buffer (pH 7.0) buffer at a final concentration of 100 mM (0.5% for soluble starch) was added to 10 μl of a test sample solution appropriately diluted with the same buffer. 10 μl of the crude enzyme solution prepared from rat small intestine was added thereto. The mixture was reacted at 37° C. for 20 minutes.
# The enzymatic reaction was assessed by adding 3 ml of a reagent for glucose measurement (Wako Pure Chemical Industries) to the reaction mixture, reacting at 37° C. for 5 minutes and then measuring the absorbance at 505 nm as the glucose content in the mixture.
# The inhibitory activity of DGE on the digestion of each substrate by α-glycosidase was measured using DGE at four different concentrations according to the above-mentioned method. The activity of inhibiting α-glycosidase was expressed as a relative activity (%) defining the activity of the control without DGE as 100%.
# [4] = system: 70-kDa heat shock protein; test: Heat shock protein induction test; format: cell-based; parameters: key to Induction of heat shock protein: − means that no induction was observed; + represents the induction level. Increased number of + means increased induction; + +: + represents the induction level. Increased number of + means increased induction; + + +: + represents the induction level. Increased number of + means increased induction; + + + +: + represents the induction level. Increased number of + means increased induction; conditions: HL-60 cells; for activity of inducing heat shock protein: 70-kDa heat shock protein; for Induction of heat shock protein: 6 hours
# Procedure: 5 ml of RPMI 1640 medium containing 10% fetal bovine serum and HL-60 cells at a concentration of 2×10^5 cells/ml was placed in each well of a 6-well plate. The plate was incubated at 37° C. for 24 hours in the presence of 5% CO2. DGE at a final concentration of 0, 6.25, 12.5, 25, 50 or 100 μM was then added thereto. The incubation was continued for additional 6 hours.
# After cultivation, the cell number was counted.
# The cells were harvested by centrifugation, washed with PBS to prepare DGE-treated cells. Cells that were cultured in the same manner after heated at 45° C. for 10 minutes were also prepared.
# These treated cells were used for SDS-PAGE according to the method as described in Molecular Cloning [Cold Spring Harbor Laboratory Press (1989)]. The treated cells were suspended in SDS-PAGE Sample buffer at a concentration of 2.5×10^6 cells/ml. The cell suspensions were treated at 100° C. for 10 minutes. 5 μl each of the cell suspensions was applied to two SDS-PAGE gels (5% stacking gel, 10% separation gel) and electrophoresed. One of the gels was subjected to Coomassie staining. The other gel was blotted onto a polyvinylidene difluoride transfer membrane [Immobilon™, Millipore, Cat. # IPVH000-10]. The membrane was blocked at 4° C. overnight using Block Ace (Dainippon Pharmaceutical, Cat. # UK-B25).
# The blocked membrane was reacted with a monoclonal antibody HSP72/73(Ab-1) (Oncogene Research Products, Cat. # HSP01), which specifically reacts with heat-inducible 70-kDa heat shock protein. The membrane was washed with TBS containing 0.05% Tween 20 followed by TBS. The membrane was then reacted with a peroxidase-conjugated secondary antibody HRT-rabbit anti-mouse IgG (H+L) (Zymed Laboratories, Inc., Cat. # 61-6520), and then washed as described above. The membrane reacted with the primary and secondary antibodies was reacted with a chemiluminol reagent, Renaissance™ (Dupont NEN, Cat. # NEL-100). The membrane was then exposed to an X-ray film to confirm the induction of 70-kDa heat shock protein.
molecule,measurement,setting,value
"O=C1C=CC(CO)OC1O [DGE, L-glycero-1,5-epoxy-1αβ,6-dihydroxy-cis-hex-3-en-2-one]",antimutagenic activity,"[1]; against NQO, DGE final concentration 0.5 mM",36%
same,antimutagenic activity,"[1]; against mitomycin C, DGE final concentration 0.5 mM",37%
same,β-Galactosidase activity,"[1]; mutagen Mitomycin C, DGE final concentration 0.03 mM, without DGE 611",590
same,β-Galactosidase activity,"[1]; mutagen Mitomycin C, DGE final concentration 0.17 mM, without DGE 611",570
same,β-Galactosidase activity,"[1]; mutagen Mitomycin C, DGE final concentration 0.33 mM, without DGE 611",451
same,β-Galactosidase activity,"[1]; mutagen Mitomycin C, DGE final concentration 0.5 mM, without DGE 611",383
same,β-Galactosidase activity,"[1]; mutagen NQO, DGE final concentration 0.03 mM, without DGE 1437",1376
same,β-Galactosidase activity,"[1]; mutagen NQO, DGE final concentration 0.17 mM, without DGE 1437",1212
same,β-Galactosidase activity,"[1]; mutagen NQO, DGE final concentration 0.33 mM, without DGE 1437",1038
same,β-Galactosidase activity,"[1]; mutagen NQO, DGE final concentration 0.5 mM, without DGE 1437",926
same,activity of inhibiting melanogenesis,[2],an activity of inhibiting melanogenesis was observed
same,relative activity,"[3]; substrate Maltose, DGE 0.2 mM",96%
same,relative activity,"[3]; substrate Maltose, DGE 0.5 mM",97%
same,relative activity,"[3]; substrate Maltose, DGE 1.0 mM",100%
same,relative activity,"[3]; substrate Maltose, DGE 2.0 mM",96%
same,relative activity,"[3]; substrate Soluble starch, DGE 0.2 mM",100%
same,relative activity,"[3]; substrate Soluble starch, DGE 0.5 mM",95%
same,relative activity,"[3]; substrate Soluble starch, DGE 1.0 mM",91%
same,relative activity,"[3]; substrate Soluble starch, DGE 2.0 mM",92%
same,relative activity,"[3]; substrate Treharose, DGE 0.2 mM",98%
same,relative activity,"[3]; substrate Treharose, DGE 0.5 mM",96%
same,relative activity,"[3]; substrate Treharose, DGE 1.0 mM",99%
same,relative activity,"[3]; substrate Treharose, DGE 2.0 mM",100%
same,activity of inducing heat shock protein,[4],the induction of 70-kDa heat shock protein by DGE was observed
same,Induction of heat shock protein,[4]; 6.25 μM DGE,+
same,Induction of heat shock protein,[4]; 12.5 μM DGE,+
same,Induction of heat shock protein,[4]; 25.0 μM DGE,+ +
same,Induction of heat shock protein,[4]; 50.0 μM DGE,+ + +
same,Induction of heat shock protein,[4]; 100 μM DGE,+ + + +
"5-L-glutathion-S-yl-2-hydroxy-3,7-dioxabicyclo[2.2.2]octan-1-ol [DGE-GSH]",antimutagenic activity,[1],also exhibited similar activities
same,activity of inhibiting melanogenesis,[2],also exhibited similar activities
same,activities of inhibiting α-glycosidase,[3],also exhibited similar activities of inhibiting α-glycosidase
same,activity of inducing heat shock protein,[4],also exhibited similar activities of inducing heat shock protein
"O=C1C=CC(CO)OC1O [κ-DGE, D-glycero-1,5-epoxy-1αβ,6-dihydroxy-cis-hex-3-en-2-one]",antimutagenic activity,[1],also exhibited similar activities
same,activity of inhibiting melanogenesis,[2],also exhibited similar activities
same,activities of inhibiting α-glycosidase,[3],also exhibited similar activities of inhibiting α-glycosidase
same,activity of inducing heat shock protein,[4],also exhibited similar activities of inducing heat shock protein
